According to article PMC9794833, “Ligand recognition and activation of neuromedin U receptor 2” (Nature Communications, 2022):
Values joined by “and” are separate entries in the source; they are usually repeats but may differ in a detail not shown here. Identical values can stand only once. Where a SMILES comes first, the peptide text is derived from it. [ ]: non-standard residue; d: D form. The star is where a group is joined. αMeW = C[C@](N)(Cc1c[nH]c2ccccc12)C(=O)O; Acetyl(2-thienyl) = O=C(Cc1cccs1)*

How the values were obtained:
[1] = molecular target: T1, NMU2 (Homo sapiens, UniProt Q9GZQ4); experiment: TRUPATH Gαi1βγ biosensor assay, WT NMU2; assay type: cell-based; conditions: WT; for CPN 267–induced G protein activation of NMU2: single replicates
T1 construct: HA signal peptide (N); expressed in transfected cells; host or cells: HEK 293F
T1 sequence (Q9GZQ4 whole entry): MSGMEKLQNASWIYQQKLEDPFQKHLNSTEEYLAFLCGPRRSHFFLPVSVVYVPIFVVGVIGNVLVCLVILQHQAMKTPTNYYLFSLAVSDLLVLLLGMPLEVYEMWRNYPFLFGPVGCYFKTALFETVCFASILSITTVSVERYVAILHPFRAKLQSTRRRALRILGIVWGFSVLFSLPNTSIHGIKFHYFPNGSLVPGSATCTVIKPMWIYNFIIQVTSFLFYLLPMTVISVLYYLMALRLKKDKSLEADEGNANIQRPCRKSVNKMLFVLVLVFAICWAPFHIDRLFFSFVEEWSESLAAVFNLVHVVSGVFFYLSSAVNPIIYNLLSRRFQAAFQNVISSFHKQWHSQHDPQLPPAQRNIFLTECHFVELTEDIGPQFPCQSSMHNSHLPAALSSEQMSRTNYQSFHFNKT
Procedure: (§1) The plasmids of Gαi1, Gβ3, and Gγ9 used for the TRUPATH assay were purchased from Addgene (TRUPATH Kit, #1000000163). NMU2 constructs of WT and mutants were constructed into a PTT5 vector (Invitrogen) with an N-terminal HA signal peptide followed by a Flag tag. HEK 293F cells were transiently transfected with WT or mutants of NMU2, Gαi1, Gβ3, and Gγ9 at an […] ratio of 4:1:1:1 with a total of 3500 ng plasmid DNA using a transfection reagent (PEI MAX 2000, Polysciences) and cultivated at 37 °C with 5 % CO2. Cells were collected after 48-h transfection. The expression level of the receptor was measured by incubating 10 μl cells with 15 μl TBS buffer supplemented with 4% bovine serum albumin, 20% (v/v) viability staining solution7-AAD (Invitrogen, Cat#00-6993-50), and ANTI-FLAG M2-FITC antibody (Sigma, F4049; 1:100 diluted by TBS) at 4 °C for 20 min. After incubation, 175 μl TBS buffer was added, and the fluorescence signal on the cell surface was detected by an FCM (flow cytometry) reader (Millipore). The cells were diluted with 1× HBSS (Hank’s balanced salt solution) balanced buffer supplemented with 25 mM HEPES, pH 7.4, and seeded onto the 96-well opaque cell culture plates (Beyotime) at a density of 18,000 cells per well by 60 μl. Freshly prepared 50 μM coelenterazine 400a (Nanolight Technologies) was added into the well by 10 μl. After a 5 min equilibration time in the darkness, plates were then read in a Synerg^TM H1 microplate reader (BioTek) with excitation at 395 nm and emission at 410 and 515 nm by serially three times. Then, 30 μl of 3.3× agonists were added into the wells with a gradient final concentration from 10^−4–10^−13 M. Plates were read immediately again by serially five times. Data were processed and analyzed following the method in the literature by using GraphPad Prism 8.0.

[2] = molecular target: T2, NMU2 A302H (Homo sapiens, UniProt Q9GZQ4, A302H); experiment: TRUPATH assay, NMU2 mutant A302H; assay type: cell-based; conditions: Log [CPN 267] M -13
T2 construct: HA signal peptide (N); expressed in transfected cells; host or cells: HEK 293F
T2 sequence (Q9GZQ4 whole entry A302H): as the sequence (Q9GZQ4 whole entry) above, with A302H counted along it
Procedure: as §1

[3] = molecular target: T3, NMU2 H43E (Homo sapiens, UniProt Q9GZQ4, H43E); experiment: TRUPATH assay, NMU2 mutant H43E; assay type: cell-based; conditions: for increase of Emax: H43E vs WT, TRUPATH; for CPN 267–induced G protein activation of NMU2: single replicates
T3 construct: HA signal peptide (N); expressed in transfected cells; host or cells: HEK 293F
T3 sequence (Q9GZQ4 whole entry H43E): as the sequence (Q9GZQ4 whole entry) above, with H43E counted along it
Procedure: as §1

[4] = system: NMU1; design: method as in PMID 24999562, PMID 25815150, PMID 28548497; conditions: cited from earlier work
[5] = molecular target: T4, NMU2 N306Q (Homo sapiens, UniProt Q9GZQ4, N306Q); experiment: TRUPATH assay, NMU2 mutant N306Q; assay type: cell-based
T4 construct: HA signal peptide (N); expressed in transfected cells; host or cells: HEK 293F
T4 sequence (Q9GZQ4 whole entry N306Q): as the sequence (Q9GZQ4 whole entry) above, with N306Q counted along it
Procedure: as §1

- EC50 ratio EC50(mutant)/EC50(WT) [1]: 1
- CPN 267 dose-response point on NMU2 (TRUPATH, raw signal) ([1]; Log [CPN 267] M -13): 0
- CPN 267–induced G protein activation of NMU2 ([1]; Log [CPN 267] M -13): 0
- CPN 267 dose-response point on NMU2 (TRUPATH, raw signal) [2]: 0
- EC50 ratio EC50(mutant)/EC50(WT) ([3]; H43E): 2
- increase of Emax [3]: twofold
- increase of Emax ([3]; listed as CPN267): 2 fold
- CPN 267 dose-response point on NMU2 (TRUPATH, raw signal) ([3]; H43E, Log [CPN 267] M -4): -0.04819
- CPN 267–induced G protein activation of NMU2 ([3]; H43E, Log [CPN 267] M -4): -0.04819
- CPN 267–induced G protein activation of NMU2 ([3]; H43E, Log [CPN 267] M -5): -0.05461 and -0.04902
- CPN 267–induced G protein activation of NMU2 ([3]; H43E, Log [CPN 267] M -6): -0.04442 and -0.04638 and -0.03015
- CPN 267–induced G protein activation of NMU2 ([3]; H43E, Log [CPN 267] M -7): -0.01102 and -0.01529 and -0.01284
- CPN 267–induced G protein activation of NMU2 ([3]; H43E, Log [CPN 267] M -8): 0.004556 and -0.024 and -0.02479
- CPN 267–induced G protein activation of NMU2 ([3]; H43E, Log [CPN 267] M -9): 0.01023 and -0.003075 and 0.003569
- CPN 267–induced G protein activation of NMU2 ([3]; H43E, Log [CPN 267] M -10): 0.0005609 and -0.01099 and -0.03027
- CPN 267–induced G protein activation of NMU2 ([3]; H43E, Log [CPN 267] M -11): 0.0192 and 0.004402 and 0
- CPN 267–induced G protein activation of NMU2 ([3]; H43E, Log [CPN 267] M -12): 0.009217 and 0
- CPN 267 dose-response point on NMU2 (TRUPATH, raw signal) ([3]; H43E, Log [CPN 267] M -13): 0
- CPN 267–induced G protein activation of NMU2 ([3]; H43E, Log [CPN 267] M -13): 0
- EC50 ratio EC50(mutant)/EC50(WT) [5]: 0.12
- CPN 267–induced G protein activation of NMU2 ([5]; Log [CPN 267] M -4, single replicates): -0.07238 and -0.04006 and -0.03184
- CPN 267–induced G protein activation of NMU2 ([5]; Log [CPN 267] M -6, single replicates): -0.04834 and -0.04745
- CPN 267 dose-response point on NMU2 (TRUPATH, raw signal) ([5]; Log [CPN 267] M -13): 0
- enhanced potency compared to the WT receptor ([5]; TRUPATH): about 8 fold
SMILES: C[C@@](Cc1c[nH]c2ccccc12)(NC(=O)[C@H](Cc1c[nH]c2ccccc12)NC(=O)Cc1cccs1)C(=O)N[C@@H](CCCNC(=N)N)C(=O)N1CCC[C@H]1C(=O)N[C@@H](CCCNC(=N)N)C(=O)N[C@@H](CC(N)=O)C(N)=O [CPN 267] ({Acetyl(2-thienyl)}-W[αMeW]RPRN-NH2; N-terminus assumed)
- CPN 267–induced G protein activation of NMU2 ([1]; Log [CPN 267] M -5): -0.03587 and 0.007188 and -0.01399 and -0.02335
- CPN 267–induced G protein activation of NMU2 ([1]; Log [CPN 267] M -6): -0.02292 and -0.01831 and -0.0188 and -0.02168 and -0.03547 and -0.01761 and -0.003911 and -0.0252 and -0.02032
- CPN 267–induced G protein activation of NMU2 ([1]; Log [CPN 267] M -7): -0.006001 and -0.01343 and -0.0256 and -0.004694 and 0.01387 and -0.02539 and 0.01253 and -0.01403 and -0.001793
- CPN 267–induced G protein activation of NMU2 ([1]; Log [CPN 267] M -8): 0.003495 and -0.002501 and 0.007246 and 0.0002105 and -0.01007 and 0.01037 and -0.008456 and 0.001798
- CPN 267–induced G protein activation of NMU2 ([1]; Log [CPN 267] M -9): -0.002278 and 0.02355 and -0.003166 and -0.00428 and 0.01286 and -0.01712 and 0.00907 and -0.02718 and 0.02569
- CPN 267–induced G protein activation of NMU2 ([1]; Log [CPN 267] M -10): 0.01327 and -0.00722 and 0.003132 and -0.01489 and -0.004805 and 0.01086 and 0.01655 and -0.01176
- CPN 267–induced G protein activation of NMU2 ([1]; Log [CPN 267] M -11): 0.01288 and -0.01868 and -0.005647 and 0.02201 and -0.02258 and -0.03283 and 0 (3×)
- CPN 267–induced G protein activation of NMU2 ([1]; Log [CPN 267] M -12): 0.001564 and -0.001695 and 0.03559 and -0.01351 and 0.02492 and 0
- selectivity over NMU2 ([4]; NMU1 over NMU2): 1000 fold
- EC50 ([4]; agonistic activity for NMU1): 0.25 nM
- CPN 267–induced G protein activation of NMU2 ([5]; Log [CPN 267] M -5, single replicates): -0.01962 and -0.06076 and -0.0468 and -0.06887
